Data: ChEMBL document CHEMBL5126566, “Comparison of three zinc binding groups for HDAC inhibitors - A potency, selectivity and enzymatic kinetics study” (Bioorg Med Chem Lett, 2022)
Activity calls are given as the source filed them. The calls are words filed in the database; no cut-off is given here.

Columns and labels:
Histone deacetylase 3 [1] = target: T1, Histone deacetylase 3 (Homo sapiens, UniProt O15379); experiment: Inhibition of HDAC3 (unknown origin) preincubated for 60 mins
Histone deacetylase 1 [2] = target: T2, Histone deacetylase 1 (Homo sapiens, UniProt Q13547); experiment: Inhibition of HDAC1 (unknown origin) preincubated for 5 mins
T2 sequence (Q13547 whole entry): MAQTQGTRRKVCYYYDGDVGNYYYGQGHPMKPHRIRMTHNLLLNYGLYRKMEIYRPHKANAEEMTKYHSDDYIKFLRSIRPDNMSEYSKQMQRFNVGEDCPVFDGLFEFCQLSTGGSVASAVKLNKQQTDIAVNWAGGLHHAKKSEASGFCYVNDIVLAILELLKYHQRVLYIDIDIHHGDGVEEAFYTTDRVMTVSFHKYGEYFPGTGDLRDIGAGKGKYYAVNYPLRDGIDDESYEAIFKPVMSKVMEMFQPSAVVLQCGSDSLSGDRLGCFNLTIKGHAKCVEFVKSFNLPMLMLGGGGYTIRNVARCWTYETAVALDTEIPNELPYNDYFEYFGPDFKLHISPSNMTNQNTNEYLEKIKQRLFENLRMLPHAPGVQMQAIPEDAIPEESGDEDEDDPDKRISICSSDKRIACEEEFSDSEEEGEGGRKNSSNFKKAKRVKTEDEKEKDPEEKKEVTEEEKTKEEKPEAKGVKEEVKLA

Histone deacetylase 2 [3] = target: T3, Histone deacetylase 2 (Homo sapiens, UniProt Q92769); experiment: Inhibition of HDAC2 (unknown origin) preincubated for 120 mins
T3 sequence (Q92769 whole entry): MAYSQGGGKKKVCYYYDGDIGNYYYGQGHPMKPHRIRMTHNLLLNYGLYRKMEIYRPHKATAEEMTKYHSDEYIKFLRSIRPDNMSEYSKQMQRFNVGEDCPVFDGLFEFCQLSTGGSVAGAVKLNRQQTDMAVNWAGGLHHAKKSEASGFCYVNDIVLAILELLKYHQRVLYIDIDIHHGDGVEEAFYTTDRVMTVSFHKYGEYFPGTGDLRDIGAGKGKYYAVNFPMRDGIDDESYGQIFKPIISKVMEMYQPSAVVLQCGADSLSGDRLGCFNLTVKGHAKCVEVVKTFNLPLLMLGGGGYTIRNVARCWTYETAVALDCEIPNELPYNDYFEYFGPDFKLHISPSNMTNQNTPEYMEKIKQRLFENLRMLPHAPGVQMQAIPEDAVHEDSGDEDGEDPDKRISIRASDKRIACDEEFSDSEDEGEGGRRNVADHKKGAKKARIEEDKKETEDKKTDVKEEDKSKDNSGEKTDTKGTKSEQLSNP

Histone deacetylase 5 = Histone deacetylase 5 (Homo sapiens, UniProt Q9UQL6); experiment: Inhibition of HDAC5 (unknown origin)
Chain of Histone deacetylase 5 (Q9UQL6 whole entry): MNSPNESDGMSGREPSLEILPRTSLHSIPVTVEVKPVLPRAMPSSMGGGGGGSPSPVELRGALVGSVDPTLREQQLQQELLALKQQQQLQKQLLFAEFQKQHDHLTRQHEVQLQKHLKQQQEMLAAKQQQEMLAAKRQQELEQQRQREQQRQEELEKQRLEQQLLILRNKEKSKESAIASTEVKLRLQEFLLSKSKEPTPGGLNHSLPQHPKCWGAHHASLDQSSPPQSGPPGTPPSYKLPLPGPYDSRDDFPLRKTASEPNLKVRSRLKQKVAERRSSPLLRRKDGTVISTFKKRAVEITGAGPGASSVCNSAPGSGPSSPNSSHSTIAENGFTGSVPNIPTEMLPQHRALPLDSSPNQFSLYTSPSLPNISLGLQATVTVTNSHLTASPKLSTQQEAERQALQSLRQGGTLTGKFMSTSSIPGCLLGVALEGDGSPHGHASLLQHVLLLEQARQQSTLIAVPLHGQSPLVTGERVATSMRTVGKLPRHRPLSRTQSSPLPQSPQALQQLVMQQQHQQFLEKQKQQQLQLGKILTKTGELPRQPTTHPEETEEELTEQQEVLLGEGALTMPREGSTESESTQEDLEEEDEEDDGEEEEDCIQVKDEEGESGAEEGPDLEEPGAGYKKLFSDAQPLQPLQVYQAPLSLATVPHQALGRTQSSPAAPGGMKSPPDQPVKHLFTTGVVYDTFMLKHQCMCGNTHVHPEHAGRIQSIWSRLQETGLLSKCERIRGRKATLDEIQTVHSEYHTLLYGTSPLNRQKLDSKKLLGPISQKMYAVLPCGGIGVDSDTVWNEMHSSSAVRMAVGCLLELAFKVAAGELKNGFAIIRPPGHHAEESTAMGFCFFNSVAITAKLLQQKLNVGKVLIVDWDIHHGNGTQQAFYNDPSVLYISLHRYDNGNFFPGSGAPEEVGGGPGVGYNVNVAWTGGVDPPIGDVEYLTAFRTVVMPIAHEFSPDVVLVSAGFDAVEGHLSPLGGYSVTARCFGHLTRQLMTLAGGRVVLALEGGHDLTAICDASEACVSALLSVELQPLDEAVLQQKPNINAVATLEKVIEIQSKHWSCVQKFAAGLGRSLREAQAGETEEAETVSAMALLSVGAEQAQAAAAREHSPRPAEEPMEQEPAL

Histone deacetylase 3 [4] = target: T1, Histone deacetylase 3; experiment: Inhibition of HDAC3 (unknown origin) preincubated for 90 mins
Histone deacetylase 1 [5] = target: T2, Histone deacetylase 1; experiment: Inhibition of HDAC1 (unknown origin)
Histone deacetylase 3 [6] = target: T1, Histone deacetylase 3; experiment: Inhibition of HDAC3 (unknown origin) preincubated for 30 mins
Histone deacetylase 3 [7] = target: T1, Histone deacetylase 3; experiment: Inhibition of HDAC3 (unknown origin)
Histone deacetylase 1 [8] = target: T2, Histone deacetylase 1; experiment: Inhibition of HDAC1 (unknown origin) preincubated for 120 mins
Histone deacetylase 1 [9] = target: T2, Histone deacetylase 1; experiment: Inhibition of HDAC1 (unknown origin) preincubated for 90 mins
Histone deacetylase 3 [10] = target: T1, Histone deacetylase 3; experiment: Inhibition of HDAC3 (unknown origin) preincubated for 120 mins
[11] = target: T4, Protein deacetylase HDAC6 (Homo sapiens, UniProt Q9UBN7); experiment: Inhibition of HDAC6 (unknown origin)
T4 sequence (Q9UBN7 whole entry): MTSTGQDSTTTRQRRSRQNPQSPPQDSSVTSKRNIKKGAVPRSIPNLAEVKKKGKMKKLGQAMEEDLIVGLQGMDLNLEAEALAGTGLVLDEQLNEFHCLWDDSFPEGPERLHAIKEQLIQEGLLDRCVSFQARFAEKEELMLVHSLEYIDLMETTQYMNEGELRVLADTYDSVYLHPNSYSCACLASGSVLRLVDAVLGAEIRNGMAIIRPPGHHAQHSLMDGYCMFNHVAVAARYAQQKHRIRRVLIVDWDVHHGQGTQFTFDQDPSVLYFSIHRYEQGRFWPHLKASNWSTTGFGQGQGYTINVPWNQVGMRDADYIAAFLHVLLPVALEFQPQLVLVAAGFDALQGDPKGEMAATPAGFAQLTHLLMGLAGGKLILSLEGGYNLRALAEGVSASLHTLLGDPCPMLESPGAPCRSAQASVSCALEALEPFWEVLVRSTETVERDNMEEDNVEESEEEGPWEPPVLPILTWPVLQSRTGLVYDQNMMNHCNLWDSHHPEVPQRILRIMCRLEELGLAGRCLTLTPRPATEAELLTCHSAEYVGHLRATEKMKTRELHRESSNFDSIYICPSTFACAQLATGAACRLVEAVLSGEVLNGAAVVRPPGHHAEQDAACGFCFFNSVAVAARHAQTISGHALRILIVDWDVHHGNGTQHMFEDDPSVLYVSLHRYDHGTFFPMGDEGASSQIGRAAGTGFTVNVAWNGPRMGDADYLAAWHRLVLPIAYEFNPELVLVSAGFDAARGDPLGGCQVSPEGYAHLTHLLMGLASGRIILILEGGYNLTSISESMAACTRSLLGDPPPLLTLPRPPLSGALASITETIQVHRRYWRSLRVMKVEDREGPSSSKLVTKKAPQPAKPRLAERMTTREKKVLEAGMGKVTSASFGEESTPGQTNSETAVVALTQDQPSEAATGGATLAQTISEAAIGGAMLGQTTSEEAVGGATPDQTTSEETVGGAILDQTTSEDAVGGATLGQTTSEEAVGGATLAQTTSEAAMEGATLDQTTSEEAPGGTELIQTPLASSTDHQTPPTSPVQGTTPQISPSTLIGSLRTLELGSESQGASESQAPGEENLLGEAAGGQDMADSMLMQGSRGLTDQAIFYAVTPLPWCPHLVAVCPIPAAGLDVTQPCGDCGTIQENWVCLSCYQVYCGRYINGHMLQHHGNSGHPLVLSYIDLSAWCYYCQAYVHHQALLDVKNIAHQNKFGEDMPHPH

Histone deacetylase 1 [12] = target: T2, Histone deacetylase 1; experiment: Inhibition of HDAC1 (unknown origin) preincubated for 30 mins
Histone deacetylase 4 = Histone deacetylase 4 (Homo sapiens, UniProt P56524); experiment: Inhibition of HDAC4 (unknown origin)
Chain of Histone deacetylase 4 (P56524 whole entry): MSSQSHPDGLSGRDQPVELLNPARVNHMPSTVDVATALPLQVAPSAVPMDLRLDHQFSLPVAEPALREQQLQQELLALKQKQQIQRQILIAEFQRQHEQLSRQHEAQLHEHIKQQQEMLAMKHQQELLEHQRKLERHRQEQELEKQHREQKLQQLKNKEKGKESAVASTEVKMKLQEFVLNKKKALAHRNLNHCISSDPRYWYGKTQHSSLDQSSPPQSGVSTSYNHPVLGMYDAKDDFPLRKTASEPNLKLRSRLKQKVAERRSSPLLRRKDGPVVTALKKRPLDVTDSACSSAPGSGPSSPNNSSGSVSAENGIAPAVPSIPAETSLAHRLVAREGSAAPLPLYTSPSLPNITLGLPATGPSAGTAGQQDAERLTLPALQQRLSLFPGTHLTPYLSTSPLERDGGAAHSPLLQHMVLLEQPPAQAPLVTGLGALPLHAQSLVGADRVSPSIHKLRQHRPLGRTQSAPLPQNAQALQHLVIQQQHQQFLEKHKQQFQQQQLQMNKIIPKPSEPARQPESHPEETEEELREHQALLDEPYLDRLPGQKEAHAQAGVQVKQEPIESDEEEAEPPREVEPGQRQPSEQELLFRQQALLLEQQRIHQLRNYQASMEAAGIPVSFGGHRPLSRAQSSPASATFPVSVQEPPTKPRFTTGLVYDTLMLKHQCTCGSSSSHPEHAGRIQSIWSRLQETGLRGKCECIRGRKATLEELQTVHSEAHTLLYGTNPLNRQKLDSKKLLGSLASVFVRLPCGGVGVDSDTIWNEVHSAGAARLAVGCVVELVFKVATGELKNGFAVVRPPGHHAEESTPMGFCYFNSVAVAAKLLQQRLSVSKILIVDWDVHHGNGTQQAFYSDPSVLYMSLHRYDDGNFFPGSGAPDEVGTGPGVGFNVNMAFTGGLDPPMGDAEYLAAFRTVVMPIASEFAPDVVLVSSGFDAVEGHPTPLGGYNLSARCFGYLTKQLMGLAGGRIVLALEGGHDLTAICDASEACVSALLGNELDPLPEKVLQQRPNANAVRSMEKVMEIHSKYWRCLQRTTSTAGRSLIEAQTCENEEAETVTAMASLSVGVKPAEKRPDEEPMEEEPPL

Histone deacetylase 9 = Histone deacetylase 9 (Homo sapiens, UniProt Q9UKV0); experiment: Inhibition of HDAC9 (unknown origin)
Chain of Histone deacetylase 9 (Q9UKV0 whole entry): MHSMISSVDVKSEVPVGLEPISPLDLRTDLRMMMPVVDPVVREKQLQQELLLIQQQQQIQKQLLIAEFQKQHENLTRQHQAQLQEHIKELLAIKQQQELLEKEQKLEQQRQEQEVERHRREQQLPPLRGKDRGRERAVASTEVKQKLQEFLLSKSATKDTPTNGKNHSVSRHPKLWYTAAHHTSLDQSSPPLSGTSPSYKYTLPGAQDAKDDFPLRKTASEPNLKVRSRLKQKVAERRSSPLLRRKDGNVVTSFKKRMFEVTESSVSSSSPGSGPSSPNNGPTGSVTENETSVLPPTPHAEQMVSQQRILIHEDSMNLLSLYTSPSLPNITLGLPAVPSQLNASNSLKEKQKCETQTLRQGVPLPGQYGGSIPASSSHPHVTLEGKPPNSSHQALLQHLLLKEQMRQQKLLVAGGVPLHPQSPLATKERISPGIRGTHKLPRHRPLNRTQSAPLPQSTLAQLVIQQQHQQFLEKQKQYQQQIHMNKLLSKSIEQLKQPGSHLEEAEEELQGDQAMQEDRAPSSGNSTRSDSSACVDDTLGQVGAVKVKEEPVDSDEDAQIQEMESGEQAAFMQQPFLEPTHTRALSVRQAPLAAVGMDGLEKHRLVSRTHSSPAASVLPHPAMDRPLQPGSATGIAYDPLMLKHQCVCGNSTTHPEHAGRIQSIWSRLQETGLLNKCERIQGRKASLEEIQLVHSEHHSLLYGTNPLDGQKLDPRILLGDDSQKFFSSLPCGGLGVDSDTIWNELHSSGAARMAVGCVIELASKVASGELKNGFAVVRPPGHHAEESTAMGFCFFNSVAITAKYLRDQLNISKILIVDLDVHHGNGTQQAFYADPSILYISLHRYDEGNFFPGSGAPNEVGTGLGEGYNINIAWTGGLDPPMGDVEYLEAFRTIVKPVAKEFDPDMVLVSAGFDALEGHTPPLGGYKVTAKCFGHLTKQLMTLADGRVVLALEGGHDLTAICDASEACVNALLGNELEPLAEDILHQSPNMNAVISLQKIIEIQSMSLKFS

Histone deacetylase 2 [13] = target: T3, Histone deacetylase 2; experiment: Inhibition of HDAC2 (unknown origin) preincubated for 30 mins
Histone deacetylase 3 [14] = target: T1, Histone deacetylase 3; experiment: Inhibition of HDAC3 (unknown origin) preincubated for 5 mins
Histone deacetylase 2 [15] = target: T3, Histone deacetylase 2; experiment: Inhibition of HDAC2 (unknown origin)
Histone deacetylase 2 [16] = target: T3, Histone deacetylase 2; experiment: Inhibition of HDAC2 (unknown origin) preincubated for 5 mins
Histone deacetylase 1 [17] = target: T2, Histone deacetylase 1; experiment: Competitive inhibition of HDAC1 (unknown origin) at 444 to 1500 nM by Lineweaver-Burk plot analysis; conditions: dose 444-1500 nM
Histone deacetylase 3 [18] = target: T1, Histone deacetylase 3; experiment: Competitive inhibition of HDAC3 (unknown origin) at 444 to 1500 nM by Lineweaver-Burk plot analysis; conditions: dose 444-1500 nM
Histone deacetylase 2 [19] = target: T3, Histone deacetylase 2; experiment: Competitive inhibition of HDAC2 (unknown origin) at 444 to 1500 nM by Lineweaver-Burk plot analysis; conditions: dose 444-1500 nM
[20] = target: T5, Polyamine deacetylase HDAC10 (Homo sapiens, UniProt Q969S8); experiment: Inhibition of HDAC10 (unknown origin)
T5 sequence (Q969S8 whole entry): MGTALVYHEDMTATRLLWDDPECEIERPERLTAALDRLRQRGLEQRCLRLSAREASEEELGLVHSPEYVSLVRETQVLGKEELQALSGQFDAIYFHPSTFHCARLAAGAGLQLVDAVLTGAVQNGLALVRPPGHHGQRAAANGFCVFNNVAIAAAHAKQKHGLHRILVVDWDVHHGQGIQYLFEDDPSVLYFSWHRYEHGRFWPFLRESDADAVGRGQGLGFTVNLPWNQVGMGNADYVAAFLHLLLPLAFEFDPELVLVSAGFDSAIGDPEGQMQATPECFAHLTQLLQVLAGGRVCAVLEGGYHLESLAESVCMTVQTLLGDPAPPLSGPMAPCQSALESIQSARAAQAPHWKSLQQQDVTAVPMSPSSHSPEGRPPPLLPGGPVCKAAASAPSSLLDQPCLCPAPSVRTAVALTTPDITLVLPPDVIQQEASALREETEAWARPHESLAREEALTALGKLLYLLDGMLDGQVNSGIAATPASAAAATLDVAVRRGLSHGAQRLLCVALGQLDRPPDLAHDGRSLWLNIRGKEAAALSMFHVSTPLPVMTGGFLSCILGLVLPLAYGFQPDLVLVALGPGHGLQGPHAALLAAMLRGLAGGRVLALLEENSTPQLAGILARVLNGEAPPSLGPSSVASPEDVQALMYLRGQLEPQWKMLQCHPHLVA

Histone deacetylase 11 = target: T6, Histone deacetylase 11 (Homo sapiens, UniProt Q96DB2); experiment: Inhibition of HDAC11 (unknown origin)
T6 sequence (Q96DB2 whole entry): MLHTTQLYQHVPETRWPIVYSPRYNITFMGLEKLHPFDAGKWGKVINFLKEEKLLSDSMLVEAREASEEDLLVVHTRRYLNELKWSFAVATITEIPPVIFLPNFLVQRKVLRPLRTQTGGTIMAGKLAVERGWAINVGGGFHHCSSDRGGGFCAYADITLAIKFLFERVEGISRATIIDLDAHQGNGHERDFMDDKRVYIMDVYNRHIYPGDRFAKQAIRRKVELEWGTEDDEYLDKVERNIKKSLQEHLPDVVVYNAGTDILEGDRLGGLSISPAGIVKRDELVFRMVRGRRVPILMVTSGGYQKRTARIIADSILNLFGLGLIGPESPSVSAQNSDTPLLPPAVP

MV4-11 = experiment: Antiproliferative activity against human MV4-11 cells; format: functional, cell-based
Histone deacetylase 2 [21] = target: T3, Histone deacetylase 2; experiment: Inhibition of HDAC2 (unknown origin) preincubated for 90 mins
Histone deacetylase 8 = target: T7, Histone deacetylase 8 (Homo sapiens, UniProt Q9BY41); experiment: Inhibition of HDAC8 (unknown origin)
T7 sequence (Q9BY41 whole entry): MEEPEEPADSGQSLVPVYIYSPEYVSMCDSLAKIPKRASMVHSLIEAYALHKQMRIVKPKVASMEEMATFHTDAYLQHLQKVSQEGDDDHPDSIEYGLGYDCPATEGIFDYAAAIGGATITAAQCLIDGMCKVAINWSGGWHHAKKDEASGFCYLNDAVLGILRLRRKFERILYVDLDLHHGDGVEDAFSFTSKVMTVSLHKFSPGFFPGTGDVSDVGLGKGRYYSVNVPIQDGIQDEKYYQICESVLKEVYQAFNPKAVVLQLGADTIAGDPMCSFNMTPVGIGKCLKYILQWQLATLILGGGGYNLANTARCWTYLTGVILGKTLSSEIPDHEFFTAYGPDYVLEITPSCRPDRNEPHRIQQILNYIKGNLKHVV

Histone deacetylase 2 [22] = target: T3, Histone deacetylase 2; experiment: Inhibition of HDAC2 (unknown origin) preincubated for 60 mins
Histone deacetylase 1 [23] = target: T2, Histone deacetylase 1; experiment: Inhibition of HDAC1 (unknown origin) preincubated for 60 mins
Histone deacetylase 7 = target: T8, Histone deacetylase 7 (Homo sapiens, UniProt Q8WUI4); experiment: Inhibition of HDAC7 (unknown origin)
T8 sequence (Q8WUI4 whole entry): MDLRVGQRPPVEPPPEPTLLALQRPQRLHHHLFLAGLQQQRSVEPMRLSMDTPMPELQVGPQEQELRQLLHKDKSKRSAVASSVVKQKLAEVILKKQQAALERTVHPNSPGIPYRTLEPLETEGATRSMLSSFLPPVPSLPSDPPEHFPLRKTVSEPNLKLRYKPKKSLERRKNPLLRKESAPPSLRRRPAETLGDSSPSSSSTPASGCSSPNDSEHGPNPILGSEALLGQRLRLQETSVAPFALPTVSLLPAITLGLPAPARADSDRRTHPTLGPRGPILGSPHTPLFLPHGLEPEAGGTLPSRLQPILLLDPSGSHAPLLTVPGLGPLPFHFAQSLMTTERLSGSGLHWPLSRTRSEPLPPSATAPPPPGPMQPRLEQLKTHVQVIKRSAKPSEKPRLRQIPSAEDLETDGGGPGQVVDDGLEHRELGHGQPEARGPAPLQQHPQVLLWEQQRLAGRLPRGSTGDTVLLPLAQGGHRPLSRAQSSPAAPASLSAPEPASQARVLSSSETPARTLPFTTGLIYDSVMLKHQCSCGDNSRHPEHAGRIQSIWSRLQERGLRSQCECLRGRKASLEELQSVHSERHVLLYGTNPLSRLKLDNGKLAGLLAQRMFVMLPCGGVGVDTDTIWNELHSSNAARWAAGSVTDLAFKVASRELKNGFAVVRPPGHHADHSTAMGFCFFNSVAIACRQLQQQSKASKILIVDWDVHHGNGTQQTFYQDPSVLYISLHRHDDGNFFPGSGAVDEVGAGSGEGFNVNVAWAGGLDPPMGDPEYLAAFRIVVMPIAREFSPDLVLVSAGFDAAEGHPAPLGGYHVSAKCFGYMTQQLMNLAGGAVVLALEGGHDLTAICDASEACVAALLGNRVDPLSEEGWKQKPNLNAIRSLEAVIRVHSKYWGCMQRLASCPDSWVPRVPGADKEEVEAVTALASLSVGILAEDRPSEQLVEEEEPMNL

T1 sequence (O15379 whole entry): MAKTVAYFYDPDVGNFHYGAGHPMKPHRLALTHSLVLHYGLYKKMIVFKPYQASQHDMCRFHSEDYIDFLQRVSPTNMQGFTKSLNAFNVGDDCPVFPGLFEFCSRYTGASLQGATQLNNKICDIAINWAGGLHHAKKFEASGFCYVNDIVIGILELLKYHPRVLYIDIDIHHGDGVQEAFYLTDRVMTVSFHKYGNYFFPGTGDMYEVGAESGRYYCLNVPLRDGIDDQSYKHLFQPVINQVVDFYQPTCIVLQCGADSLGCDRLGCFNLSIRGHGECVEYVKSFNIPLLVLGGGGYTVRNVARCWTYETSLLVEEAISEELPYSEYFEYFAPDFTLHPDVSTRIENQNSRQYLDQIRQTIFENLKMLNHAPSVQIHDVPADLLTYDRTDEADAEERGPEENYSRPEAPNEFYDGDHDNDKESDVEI

Nc1ccccc1NC(=O)CCCCCCC(=O)Nc1ccccc1
IC50 (Histone deacetylase 3 [1]): 535 nM | IC50 (Histone deacetylase 1 [2]): 944 nM | IC50 (Histone deacetylase 2 [3]): 1270 nM | IC50 (Histone deacetylase 5): > 10 µM | IC50 (Histone deacetylase 3 [4]): 391 nM | IC50 (Histone deacetylase 1 [5]): 828 nM | IC50 (Histone deacetylase 3 [6]): 559 nM | IC50 (Histone deacetylase 3 [7]): 379 nM | IC50 (Histone deacetylase 1 [8]): 1070 nM | IC50 (Histone deacetylase 1 [9]): 1220 nM | IC50 (Histone deacetylase 3 [10]): 463 nM | IC50 [11]: > 10 µM | IC50 (Histone deacetylase 1 [12]): 910 nM | IC50 (Histone deacetylase 4): > 10 µM | IC50 (Histone deacetylase 9): > 10 µM | IC50 (Histone deacetylase 2 [13]): 1170 nM | IC50 (Histone deacetylase 3 [14]): 659 nM | IC50 (Histone deacetylase 2 [15]): 530 nM | IC50 (Histone deacetylase 2 [16]): 1160 nM | inhibition (Histone deacetylase 1 [17]): Active | inhibition (Histone deacetylase 3 [18]): Active | inhibition (Histone deacetylase 2 [19]): Active | IC50 [20]: > 10 µM | IC50 (Histone deacetylase 11): > 10 µM | IC50 (MV4-11): 7.24 µM | IC50 (Histone deacetylase 2 [21]): 1360 nM | IC50 (Histone deacetylase 8): > 10 µM | IC50 (Histone deacetylase 2 [22]): 1170 nM | IC50 (Histone deacetylase 1 [23]): 1140 nM | IC50 (Histone deacetylase 7): > 10 µM
